In the supplement of paper PMC10307832:

Columns and labels:
Assay in all cases: relative viability (nuclei count vs DMSO), 5 days (fraction); higher = more cells survive
COR-L23 = test system: COR-L23
Outline: (§1)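 For relative viability, nuclei counts in treated wells were divided by those in vehicle wells. Lung cancer cell lines had been pin-tool dosed in 1536-well plates the day after seeding and cultured for 5 days, then fixed and stained in one step (final 0.05% Triton X-100, 1% formaldehyde, 1 ug/ml Hoechst) and imaged at 4×. Doses were one drug alone or a fixed anchor-drug dose plus five library-drug doses (not always all listed) in √10 steps, and values are duplicate-plate medians.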

NCI-H2405 = test system: NCI-H2405
Outline: as §1

NCI-H322M = test system: NCI-H322M
Outline: as §1

NCI-H1734 = test system: NCI-H1734
Outline: as §1

H3255 = test system: H3255
Outline: as §1

NCI-H647 = test system: NCI-H647
Outline: as §1

NCI-H23 = test system: NCI-H23
Outline: as §1

LK-2 = test system: LK-2
Outline: as §1

PC-14 = test system: PC-14
Outline: as §1

NCI-H2087 = test system: NCI-H2087
Outline: as §1

LXF-289 = test system: LXF-289
Outline: as §1

NCI-H2085 = test system: NCI-H2085
Outline: as §1

UMC-11 = test system: UMC-11
Outline: as §1

NCI-H2347 = test system: NCI-H2347
Outline: as §1

NCI-H1651 = test system: NCI-H1651
Outline: as §1

EKVX = test system: EKVX
Outline: as §1

RERF-LC-KJ = test system: RERF-LC-KJ
Outline: as §1

NCI-H3122 = test system: NCI-H3122
Outline: as §1

NCI-H358 = test system: NCI-H358
Outline: as §1

A-427 = test system: A-427
Outline: as §1

NCI-H1993 = test system: NCI-H1993
Outline: as §1

SK-LU-1 = test system: SK-LU-1
Outline: as §1

NCI-H1437 = test system: NCI-H1437
Outline: as §1

NCI-H460 = test system: NCI-H460
Outline: as §1

Structure (SMILES): Nc1cccc2c1CN(C1CCC(=O)NC1=O)C2=O (centres undefined) [Lenalidomide] + C[C@@H](Oc1cc(-c2cnn(C3CCNCC3)c2)cnc1N)c1c(Cl)ccc(F)c1Cl [Crizotinib] (partner 1 µM)
- relative viability (COR-L23; first compound 0.253 µM): 0.656
- relative viability (COR-L23; first compound 0.8 µM): 0.634
- relative viability (COR-L23; first compound 2.53 µM): 0.718
- relative viability (COR-L23; first compound 8 µM): 0.82
- relative viability (NCI-H2405; first compound 0.253 µM): 0.819
- relative viability (NCI-H2405; first compound 0.8 µM): 0.858
- relative viability (NCI-H2405; first compound 2.53 µM): 0.897
- relative viability (NCI-H2405; first compound 8 µM): 0.791
- relative viability (NCI-H322M; first compound 0.253 µM): 0.911
- relative viability (NCI-H322M; first compound 0.8 µM): 0.9
- relative viability (NCI-H322M; first compound 2.53 µM): 0.914
- relative viability (NCI-H322M; first compound 8 µM): 0.996
- relative viability (NCI-H1734; first compound 0.253 µM): 0.622
- relative viability (NCI-H1734; first compound 0.8 µM): 0.654
- relative viability (NCI-H1734; first compound 2.53 µM): 0.618
- relative viability (NCI-H1734; first compound 8 µM): 0.597
- relative viability (H3255; first compound 0.253 µM): 0.79
- relative viability (H3255; first compound 0.8 µM): 0.885
- relative viability (H3255; first compound 2.53 µM): 0.872
- relative viability (H3255; first compound 8 µM): 0.946
- relative viability (NCI-H647; first compound 0.253 µM): 1.08
- relative viability (NCI-H647; first compound 0.8 µM): 1.04
- relative viability (NCI-H647; first compound 2.53 µM): 1.22
- relative viability (NCI-H647; first compound 8 µM): 1.14
- relative viability (NCI-H23; first compound 0.253 µM): 0.521
- relative viability (NCI-H23; first compound 0.8 µM): 0.439
- relative viability (NCI-H23; first compound 2.53 µM): 0.605
- relative viability (NCI-H23; first compound 8 µM): 0.62
- relative viability (LK-2; first compound 0.253 µM): 0.229
- relative viability (LK-2; first compound 2.53 µM): 0.216
- relative viability (LK-2; first compound 8 µM): 0.256
- relative viability (PC-14; first compound 0.253 µM): 0.904
- relative viability (PC-14; first compound 0.8 µM): 0.857
- relative viability (PC-14; first compound 2.53 µM): 0.905
- relative viability (PC-14; first compound 8 µM): 0.914
- relative viability (NCI-H2087; first compound 0.253 µM): 0.81
- relative viability (NCI-H2087; first compound 0.8 µM): 0.896
- relative viability (NCI-H2087; first compound 2.53 µM): 0.539
- relative viability (NCI-H2087; first compound 8 µM): 0.928
- relative viability (LXF-289; first compound 0.253 µM): 0.831
- relative viability (LXF-289; first compound 0.8 µM): 0.836
- relative viability (LXF-289; first compound 2.53 µM): 0.919
- relative viability (LXF-289; first compound 8 µM): 0.983
- relative viability (NCI-H2085; first compound 0.253 µM): 0.866
- relative viability (NCI-H2085; first compound 0.8 µM): 0.742
- relative viability (NCI-H2085; first compound 2.53 µM): 0.97
- relative viability (NCI-H2085; first compound 8 µM): 0.926
- relative viability (UMC-11; first compound 0.253 µM): 0.61
- relative viability (UMC-11; first compound 0.8 µM): 0.573
- relative viability (UMC-11; first compound 2.53 µM): 0.601
- relative viability (UMC-11; first compound 8 µM): 0.644
- relative viability (NCI-H2347; first compound 0.253 µM): 0.779
- relative viability (NCI-H2347; first compound 0.8 µM): 0.674
- relative viability (NCI-H2347; first compound 2.53 µM): 0.83
- relative viability (NCI-H2347; first compound 8 µM): 0.573
- relative viability (NCI-H1651; first compound 0.253 µM): 0.875
- relative viability (NCI-H1651; first compound 0.8 µM): 0.884
- relative viability (NCI-H1651; first compound 2.53 µM): 0.865
- relative viability (NCI-H1651; first compound 8 µM): 0.861
- relative viability (EKVX; first compound 0.253 µM): 0.978
- relative viability (EKVX; first compound 0.8 µM): 1.05
- relative viability (EKVX; first compound 2.53 µM): 1.09
- relative viability (EKVX; first compound 8 µM): 0.998
- relative viability (RERF-LC-KJ; first compound 0.253 µM): 0.8
- relative viability (RERF-LC-KJ; first compound 0.8 µM): 0.778
- relative viability (RERF-LC-KJ; first compound 2.53 µM): 0.827
- relative viability (RERF-LC-KJ; first compound 8 µM): 0.835
- relative viability (NCI-H3122; first compound 0.253 µM): 0.261
- relative viability (NCI-H3122; first compound 0.8 µM): 0.286
- relative viability (NCI-H3122; first compound 2.53 µM): 0.261
- relative viability (NCI-H3122; first compound 8 µM): 0.258
- relative viability (NCI-H358; first compound 0.253 µM): 0.667
- relative viability (NCI-H358; first compound 0.8 µM): 0.592
- relative viability (NCI-H358; first compound 2.53 µM): 0.541
- relative viability (NCI-H358; first compound 8 µM): 0.712
- relative viability (A-427; first compound 0.253 µM): 0.833
- relative viability (A-427; first compound 2.53 µM): 0.891
- relative viability (A-427; first compound 8 µM): 0.903
- relative viability (NCI-H1993; first compound 0.253 µM): 0.626
- relative viability (NCI-H1993; first compound 0.8 µM): 0.852
- relative viability (NCI-H1993; first compound 2.53 µM): 0.761
- relative viability (NCI-H1993; first compound 8 µM): 0.777
- relative viability (SK-LU-1; first compound 0.253 µM): 1.05
- relative viability (SK-LU-1; first compound 0.8 µM): 1.06
- relative viability (SK-LU-1; first compound 2.53 µM): 0.867
- relative viability (SK-LU-1; first compound 8 µM): 0.852
- relative viability (NCI-H1437; first compound 0.253 µM): 1.01
- relative viability (NCI-H1437; first compound 0.8 µM): 0.917
- relative viability (NCI-H1437; first compound 2.53 µM): 1.02
- relative viability (NCI-H1437; first compound 8 µM): 0.938
- relative viability (NCI-H460; first compound 0.253 µM): 0.807
- relative viability (NCI-H460; first compound 0.8 µM): 1.06
- relative viability (NCI-H460; first compound 2.53 µM): 1.01
- relative viability (NCI-H460; first compound 8 µM): 0.929
